Measurements: patent US10626100B2, “Selective HDAC6 inhibitors” (The Trustees of Columbia University in the City of New York, priority 2013, dated 2020)
Entries after “also recorded” stand apart in the source; their conditions may differ.

Key:
[1] = system: HFS (human foreskin fibroblast) cells; assay: Cell growth and viability of HFS normal cells; type: cell-based
Experimental: FIG. 3. Cell growth of HFS (normal) and LNCaP (transformed) cells treated with compound 8 over 72 h.
FIG. 4. Cell viability of HFS (normal) and LNCaP (transformed) cells treated with compound 8 over 72 h.
(§1) Recombinant HDAC1 and HDAC6 are used to evaluate the selective inhibitory potency of each compound. Cell based assays: Normal cells (Human Foreskin Fibroblast cells), LNCaP (human prostate cancer cells), MCF-7 (human breast cancer cells, A549 (human adenocarcinoma of lung cells) and ARP-1 (human multiple myeloma cells) are used in these assays. Cells were cultured for up to 72 hr without and with the potential HDAC6-selective inhibitor. SAHA was used as a control. Cell number and cell viability were determined by enumeration. Proteins were extracted from cells and assayed for accumulation of acetylated tubulin and acetylated histones. All methods are described in Namdar et al., PNAS, 2010, 107:20003-8. In vivo animal studies: Potential HDAC6 inhibitor compounds are further assayed by administration to mice for up to 5 days with daily injections. Animals are sacrificed and tissues are analyzed for accumulation of acetylated tubulin and acetylated histones.
The effect of compound 8 on the cell growth and viability of normal (HFS, human foreskin fibroblast) and transformed (LNCaP, human prostate adenocarcinoma) cells cultured with 8, 16, 32 or 64 μM HPB for up to 72 h was evaluated.

HDAC6 = molecular target: T1, HDAC6 (Homo sapiens, UniProt Q9UBN7); assay: Inhibition of recombinant HDAC6
T1 sequence (Q9UBN7 1-1215): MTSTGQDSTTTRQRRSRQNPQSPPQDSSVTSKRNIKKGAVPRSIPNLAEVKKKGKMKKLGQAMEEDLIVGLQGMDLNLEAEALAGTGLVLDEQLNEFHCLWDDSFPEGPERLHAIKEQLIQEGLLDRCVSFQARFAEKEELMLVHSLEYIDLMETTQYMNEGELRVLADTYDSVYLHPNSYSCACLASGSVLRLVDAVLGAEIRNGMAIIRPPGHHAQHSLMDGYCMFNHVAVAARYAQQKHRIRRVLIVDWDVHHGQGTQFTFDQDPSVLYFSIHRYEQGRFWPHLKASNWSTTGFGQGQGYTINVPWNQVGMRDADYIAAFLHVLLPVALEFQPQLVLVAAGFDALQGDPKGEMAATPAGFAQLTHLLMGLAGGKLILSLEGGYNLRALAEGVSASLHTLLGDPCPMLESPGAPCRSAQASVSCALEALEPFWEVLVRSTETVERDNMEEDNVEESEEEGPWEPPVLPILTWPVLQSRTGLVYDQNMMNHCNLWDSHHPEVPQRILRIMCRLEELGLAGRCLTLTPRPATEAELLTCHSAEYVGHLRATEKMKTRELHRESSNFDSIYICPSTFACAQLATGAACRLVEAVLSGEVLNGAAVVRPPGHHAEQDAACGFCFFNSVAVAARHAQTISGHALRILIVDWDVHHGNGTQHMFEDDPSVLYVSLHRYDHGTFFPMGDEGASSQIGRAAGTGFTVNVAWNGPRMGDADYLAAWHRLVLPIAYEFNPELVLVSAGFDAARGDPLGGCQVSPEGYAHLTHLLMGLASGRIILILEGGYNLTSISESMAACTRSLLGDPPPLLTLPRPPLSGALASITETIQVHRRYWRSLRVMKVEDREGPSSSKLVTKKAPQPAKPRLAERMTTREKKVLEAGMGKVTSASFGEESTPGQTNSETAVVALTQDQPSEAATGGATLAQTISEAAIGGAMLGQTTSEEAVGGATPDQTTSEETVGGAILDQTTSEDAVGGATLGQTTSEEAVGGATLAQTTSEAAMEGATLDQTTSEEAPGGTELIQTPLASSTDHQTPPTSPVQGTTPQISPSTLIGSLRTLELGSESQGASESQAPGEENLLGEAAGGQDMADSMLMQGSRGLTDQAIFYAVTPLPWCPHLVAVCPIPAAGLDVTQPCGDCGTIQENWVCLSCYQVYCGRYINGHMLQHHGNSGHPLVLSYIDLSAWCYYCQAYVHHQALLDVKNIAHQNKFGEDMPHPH

HDAC1 = HDAC1 (Homo sapiens, UniProt Q13547); assay: Inhibition of recombinant HDAC1; type: biochemical; conditions: read-out: IC50 (nM) HCAC1
[2] = system: acetylated alpha-tubulin and acetylated histone H3 in HFS (human foreskin fibroblast) cells; assay: Accumulation of acetylated proteins in HFS normal cells (western blot); type: cell-based
Experimental: (§2) FIG. 5. Western blots of acetylated alpha-tubulin (Acet-Tub) and acetylated histone H3 (Acet-H3) in HFS (normal) and LNCaP (transformed) cells treated with compound 8 at 8, 16, 32, and 64 μM for 24 h. Western blots of GAPDH and total histone H3 (Total-H3) are loading controls.
as §1

[3] = system: acetylated alpha-tubulin and acetylated histone H3 in LNCaP (human prostate cancer cells); assay: Accumulation of acetylated proteins in LNCaP cells (western blot); type: cell-based; conditions: transformed cells, concentrations as high as 16 μM
[4] = system: LNCaP (transformed) cells; assay: Combination with anti-cancer agents in LNCaP cells; type: cell-based
HFS (normal) cells = assay: Combination with anti-cancer agents in HFS cells; type: cell-based, human; conditions: compound 8 alone or in combination with etoposide, paclitaxel, or SAHA, 72 h
[5] = system: acetylated alpha-tubulin and acetylated histone H3 in LNCaP (human prostate cancer cells); assay: Accumulation of acetylated proteins in LNCaP cells (western blot); type: cell-based
Experimental: FIG. 2. Blot showing accumulation of acetylated alpha-tubulin and acetylated histone H3 in LNCaP (human prostate cancer cells) cultured with compounds 8 or 11. GADPH used as loading control.
as §2, §1

[6] = system: androgen-dependent CWR22 human prostate cancer xenograft; assay: CWR22 human prostate cancer xenograft in nude mice; type: in vivo
[7] = HFS cells, 8 μM to 64 μM, 24 h, FIG. 5
[8] = normal cells, concentrations as high as 16 μM
[9] = LNCaP cells, 8 μM to 64 μM, 24 h, FIG. 5
[10] = transformed cells, concentrations as high as 16 μM
[11] = 21 days, daily 300 mg/kg compound 8 or weekly 3 mg/kg etoposide alone

Sequence of HDAC1 (Q13547 whole entry): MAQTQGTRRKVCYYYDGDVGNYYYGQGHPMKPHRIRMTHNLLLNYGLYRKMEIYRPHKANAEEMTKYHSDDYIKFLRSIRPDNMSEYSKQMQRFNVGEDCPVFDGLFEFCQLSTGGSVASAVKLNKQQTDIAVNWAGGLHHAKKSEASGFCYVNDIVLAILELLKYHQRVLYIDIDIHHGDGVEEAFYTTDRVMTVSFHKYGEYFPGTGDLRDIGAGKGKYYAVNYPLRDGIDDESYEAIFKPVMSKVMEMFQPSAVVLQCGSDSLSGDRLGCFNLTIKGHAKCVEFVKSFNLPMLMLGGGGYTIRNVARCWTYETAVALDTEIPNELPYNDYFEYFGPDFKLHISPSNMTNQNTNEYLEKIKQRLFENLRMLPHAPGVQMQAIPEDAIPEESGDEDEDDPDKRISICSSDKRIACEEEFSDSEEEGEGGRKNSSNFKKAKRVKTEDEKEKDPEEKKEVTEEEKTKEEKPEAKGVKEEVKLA

`O=C(NO)c1ccc(CN(CCO)C(=O)Cc2ccccc2)cc1` [Compound 8, N-hydroxy-4-((N-(2-hydroxyethyl)-2-phenylacetamido)methyl) benzamide] was tested, and the cell growth ([1]; HFS, 8, 16, 32 or 64 μM, up to 72 h, FIG. 3) was “inhibited cell growth of normal and transformed cells in a concentration dependent manner”, the “cell death / cell viability” value ([1]; HFS, 8, 16, 32 or 64 μM, up to 72 h, FIG. 4) was “did not induce cell death of normal or transformed cells” and the normal cell death ([1]; concentrations ≤16 μM) was “do not induce normal cell death”. The “potency as inhibitor of HDAC6 compared with SAHA” value (HDAC6) was “one hundred fold more potent”, the IC50 (HDAC6; read-out: IC50 (nM) HCAC6, recombinant HDAC6) was 31 nM and the IC50 (HDAC1) was 1130 nM. For the same compound, the “accumulation of acetylated alpha-tubulin” value [2, 7] was “caused accumulation of acetylated alpha-tubulin”, the “accumulation of acetylated histones” value [2, 7] was “not of acetylated histones” and the “accumulation of acetylated PRX” value [2, 8] was “selectively induced accumulation of acetylated alpha-tubulin and acetylated PRX”. For the same compound, the “accumulation of acetylated alpha-tubulin” value [2, 8] was “selectively induced accumulation of acetylated alpha-tubulin and acetylated PRX”, the “accumulation of acetylated histones” value [2, 8] was “not of acetylated histones” and the “accumulation of acetylated PRX” value [3] was “selectively induced accumulation of acetylated alpha-tubulin and acetylated PRX”. The “cell growth and cell viability in combination with etoposide” value ([4]; LNCaP, 50 μM etoposide and 16 μM compound 8, 72 h, versus etoposide alone) was “inhibition in cell growth and loss of cell viability to a greater extent than LNCaP cells cultured with etoposide alone; also recorded: enhances etoposide or SAHA-induced transformed cell death”, the “cell death in combination with SAHA” value ([4]; LNCaP, compound 8 and 5 μM SAHA, 72 h, versus SAHA alone) was “cell death is enhanced; also recorded: enhances etoposide or SAHA-induced transformed cell death” and the “cell death in combination with paclitaxel” value ([4]; LNCaP, paclitaxel and compound 8, 72 h, versus either drug alone) was “increases cell death”. For the same compound, the “cytotoxicity of anti-cancer drugs in transformed cells cultured with compound 8” value ([4]; transformed cells, induction of apoptosis and accumulation of DNA damage) was “enhances the cytotoxicity of anti-cancer drugs”, the cell growth (HFS (normal) cells) was “inhibits cell growth” and the cell viability (HFS (normal) cells) was “does not induce loss of cell viability”. For the same compound, the “accumulation of acetylated alpha-tubulin” value [5, 9] was “caused accumulation of acetylated alpha-tubulin”, the “accumulation of acetylated histones” value [5, 9] was “not of acetylated histones” and the “accumulation of acetylated histones (H3)” value ([5]; LNCaP cells, FIG. 2) was “did not cause accumulation of actylated histones; also recorded: without induction of H3 acetylation”. The “accumulation of acetylated α-tubulin” value ([5]; LNCaP cells, FIG. 2) was “caused the accumulation of acetylated α-tubulin; also recorded: significant levels of tubulin acylation were present”, the “accumulation of acetylated alpha-tubulin” value [5, 10] was “selectively induced accumulation of acetylated alpha-tubulin and acetylated PRX” and the “accumulation of acetylated histones” value [5, 10] was “not of acetylated histones”. For the same compound, the “growth of established CWR22 tumors, single agent” value [6, 11] was “no significant suppression of the growth”, the “weight loss, single agent” value [6, 11] was “no weight loss” and the “growth of established CWR22 tumors, combination with etoposide” value ([6]; daily compound 8 and weekly etoposide, versus vehicle-treated control animals) was “causes suppression of the growth of established CWR22 tumors; also recorded: significantly enhances the anti-tumor effect of etoposide”.
